Data reported in ChEMBL document CHEMBL5352400, “Design, synthesis and biological evaluation of novel coumarin derivatives as multifunctional ligands for the treatment of Alzheimer's disease” (Eur J Med Chem, 2022).
Active and inactive are the calls of the source. No cut-off for these calls is given here.

Legend:
Acetylcholinesterase [1] = molecular target: T1, Acetylcholinesterase (Electrophorus electricus, UniProt O42275); test: Inhibition of electric eel AChE using acetylthiocholine iodine as substrate preincubated for 20 mins followed by substrate addition and measured after 20 mins by DTNB reagent based Ellman's method
[2] = Cytotoxicity in human SH-SY5Y cells assessed as reduction in cell viability incubated for 48 hrs by MTT assay; format: toxicity, cell-based
Beta-secretase 1 [3] = molecular target: T2, Beta-secretase 1 (Homo sapiens, UniProt P56817); test: Inhibition of recombinant human BACE1 using fluorogenic polypeptide Mca-SEVNLDAEFRK(Dpn)RRNH2 as substrate at 10 uM incubated for 60 mins by FRET assay relative to control
[4] = Cytotoxicity in human HepG2 cells assessed as reduction in cell viability incubated for 48 hrs by MTT assay; format: toxicity, cell-based
Cholinesterase = Cholinesterase (Equus caballus, UniProt P81908); test: Inhibition of equine serum BuChE using butylthiocholine iodine as substrate preincubated for 20 mins followed by substrate addition and measured after 20 mins by DTNB reagent based Ellman's method
[5] = Selectivity index, ratio of IC50 for inhibition of equine serum BuChE to IC50 for inhibition of electric eel AChE
[6] = Cytotoxicity in human HL7702 cells assessed as reduction in cell viability incubated for 48 hrs by MTT assay; format: toxicity, cell-based; conditions: HL7702 (L02) cells
Beta-secretase 1 [7] = molecular target: T2, Beta-secretase 1; test: Inhibition of recombinant human BACE1 using fluorogenic polypeptide Mca-SEVNLDAEFRK(Dpn)RRNH2 as substrate incubated for 60 mins by FRET assay
[8] = molecular target: Acetylcholinesterase (Electrophorus electricus) (UniProt O42275); test: Competitive inhibition of electric eel AChE assessed as increase in slope using acetylthiocholine iodine as substrate preincubated for 20 mins followed by concentrations of substrate addition and measured after 20 mins by Lineweaver-Burk plot analysis; conditions: time 40.0 min
[9] = Acute toxicity in KM mouse assessed as change in behavior upto 1000 mg/kg,ip and measured after 14 days; format: organism-based; conditions: in vivo, 336 h, time 14 day
[10] = Acute toxicity in KM mouse assessed as change in survival rate upto 1000 mg/kg,ip and measured after 14 days; format: organism-based; conditions: in vivo, 336 h, time 14 day
[11] = Acute toxicity in KM mouse assessed as body weight change upto 1000 mg/kg,ip and measured after 14 days; format: organism-based; conditions: in vivo, 336 h, time 14 day
[12] = Effective permeability of the compound in PBS buffer at pH 7.4/EtOH buffer (7:3) incubated for 20 hrs by UV-plate spectroscopy based PAMPA-BBB assay
Acetylcholinesterase [13] = molecular target: T1, Acetylcholinesterase; test: Competitive inhibition of electric eel AChE assessed as dissociation constant using acetylthiocholine as substrate by Lineweaver-Burk plot analysis
[14] = molecular target: Glycogen synthase kinase-3 beta (Homo sapiens, UniProt P49841); test: Inhibition of GSK-3beta (unknown origin)
Chain of Glycogen synthase kinase-3 beta (P49841 whole entry): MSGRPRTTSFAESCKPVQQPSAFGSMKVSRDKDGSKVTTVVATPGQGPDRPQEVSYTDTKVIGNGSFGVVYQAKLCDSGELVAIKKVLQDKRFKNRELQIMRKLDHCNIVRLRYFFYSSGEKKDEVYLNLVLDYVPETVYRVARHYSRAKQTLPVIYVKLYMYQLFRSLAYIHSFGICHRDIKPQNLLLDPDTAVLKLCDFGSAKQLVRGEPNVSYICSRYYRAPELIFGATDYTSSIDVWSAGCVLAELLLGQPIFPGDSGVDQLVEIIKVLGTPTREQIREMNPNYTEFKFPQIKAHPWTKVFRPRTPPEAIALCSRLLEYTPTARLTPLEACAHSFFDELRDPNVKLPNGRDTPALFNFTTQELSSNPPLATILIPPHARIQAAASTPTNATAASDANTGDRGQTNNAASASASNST

T1 sequence (O42275 whole entry): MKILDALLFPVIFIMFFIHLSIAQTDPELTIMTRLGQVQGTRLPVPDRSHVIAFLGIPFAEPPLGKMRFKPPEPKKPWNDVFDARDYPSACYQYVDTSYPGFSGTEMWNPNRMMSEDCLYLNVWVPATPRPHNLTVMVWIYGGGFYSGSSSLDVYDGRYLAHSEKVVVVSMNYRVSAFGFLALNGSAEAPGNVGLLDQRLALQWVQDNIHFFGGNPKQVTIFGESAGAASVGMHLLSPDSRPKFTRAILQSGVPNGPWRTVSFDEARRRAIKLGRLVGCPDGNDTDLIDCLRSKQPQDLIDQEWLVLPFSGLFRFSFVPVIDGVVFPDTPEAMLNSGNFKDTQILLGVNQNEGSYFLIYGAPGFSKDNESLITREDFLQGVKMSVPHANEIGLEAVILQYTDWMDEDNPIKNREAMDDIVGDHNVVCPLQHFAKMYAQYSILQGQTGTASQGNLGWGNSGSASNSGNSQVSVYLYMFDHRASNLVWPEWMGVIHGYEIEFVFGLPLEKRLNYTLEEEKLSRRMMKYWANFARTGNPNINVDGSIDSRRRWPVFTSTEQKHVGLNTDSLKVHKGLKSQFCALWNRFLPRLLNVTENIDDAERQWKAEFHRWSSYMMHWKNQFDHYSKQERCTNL
T2 sequence (P56817 whole entry): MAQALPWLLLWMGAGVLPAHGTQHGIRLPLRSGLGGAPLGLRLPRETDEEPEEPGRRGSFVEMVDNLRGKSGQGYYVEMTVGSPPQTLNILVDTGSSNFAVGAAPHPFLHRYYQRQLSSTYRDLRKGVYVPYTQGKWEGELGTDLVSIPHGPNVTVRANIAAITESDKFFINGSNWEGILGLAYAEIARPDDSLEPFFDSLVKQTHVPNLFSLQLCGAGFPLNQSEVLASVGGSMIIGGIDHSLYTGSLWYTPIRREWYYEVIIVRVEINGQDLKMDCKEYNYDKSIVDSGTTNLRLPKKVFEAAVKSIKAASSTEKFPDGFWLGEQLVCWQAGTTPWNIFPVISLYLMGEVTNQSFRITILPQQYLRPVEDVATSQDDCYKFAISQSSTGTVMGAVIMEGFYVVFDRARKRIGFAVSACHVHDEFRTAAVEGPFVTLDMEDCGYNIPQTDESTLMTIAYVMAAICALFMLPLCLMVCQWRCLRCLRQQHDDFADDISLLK
Chain of Cholinesterase (P81908 whole entry): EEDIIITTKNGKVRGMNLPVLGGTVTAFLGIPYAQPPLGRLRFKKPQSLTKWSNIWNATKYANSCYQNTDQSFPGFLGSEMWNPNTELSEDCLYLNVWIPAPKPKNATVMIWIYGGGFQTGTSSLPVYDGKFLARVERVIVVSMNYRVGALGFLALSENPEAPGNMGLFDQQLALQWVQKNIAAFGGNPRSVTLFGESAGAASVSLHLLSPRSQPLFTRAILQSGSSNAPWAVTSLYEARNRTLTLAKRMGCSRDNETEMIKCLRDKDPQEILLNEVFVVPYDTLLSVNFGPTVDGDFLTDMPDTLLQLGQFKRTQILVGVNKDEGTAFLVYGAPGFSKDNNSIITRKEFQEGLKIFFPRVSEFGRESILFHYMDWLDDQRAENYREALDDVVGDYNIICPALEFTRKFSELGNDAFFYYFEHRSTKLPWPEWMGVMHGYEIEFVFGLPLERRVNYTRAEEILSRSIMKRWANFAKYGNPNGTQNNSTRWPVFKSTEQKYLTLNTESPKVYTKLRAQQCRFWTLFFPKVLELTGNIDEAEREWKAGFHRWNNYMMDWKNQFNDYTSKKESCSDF
Chain of Acetylcholinesterase (Electrophorus electricus) (O42275 24-633 limits assumed): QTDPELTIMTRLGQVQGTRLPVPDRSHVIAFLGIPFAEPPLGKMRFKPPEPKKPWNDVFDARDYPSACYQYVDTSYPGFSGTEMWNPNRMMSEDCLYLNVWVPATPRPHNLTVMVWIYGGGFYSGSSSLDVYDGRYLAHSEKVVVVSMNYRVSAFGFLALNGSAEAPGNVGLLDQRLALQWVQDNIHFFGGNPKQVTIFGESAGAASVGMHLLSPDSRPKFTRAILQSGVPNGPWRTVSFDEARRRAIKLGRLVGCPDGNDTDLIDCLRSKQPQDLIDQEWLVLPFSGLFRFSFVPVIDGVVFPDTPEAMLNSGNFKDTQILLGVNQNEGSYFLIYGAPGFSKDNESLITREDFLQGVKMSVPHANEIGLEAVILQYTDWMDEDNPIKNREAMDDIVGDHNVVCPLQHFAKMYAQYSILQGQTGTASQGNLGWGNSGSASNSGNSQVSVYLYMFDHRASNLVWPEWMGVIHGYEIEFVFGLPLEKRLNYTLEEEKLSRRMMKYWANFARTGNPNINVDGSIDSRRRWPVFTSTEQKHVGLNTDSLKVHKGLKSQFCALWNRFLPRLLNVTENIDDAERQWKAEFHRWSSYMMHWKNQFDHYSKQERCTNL

| SMILES | IC50 (Acetylcholinesterase [1]) [µM] | IC50 at 48 h [2] [µM] | inhibition (Beta-secretase 1 [3]) [%] | IC50 at 48 h [4] [µM] | IC50 (Cholinesterase) [µM] | Ratio IC50 [5] | IC50 at 48 h [6] [µM] | IC50 (Beta-secretase 1 [7]) [µM] | inhibition [8] | Activity [9] | Activity [10] | Activity [11] | Papp at 20 h [12] [×10⁻⁶ cm/s] | Ki (Acetylcholinesterase [13]) [µM] | IC50 [14] [µM] |
| --- | --- | --- | --- | --- | --- | --- | --- | --- | --- | --- | --- | --- | --- | --- | --- |
| COc1cccc(CNC2CCN(CCCOc3cc(=O)oc4cc(-c5cccnc5)ccc34)CC2)c1 | 12.4 | 19.3 | 48.8 | 11.4 | 11.3 | > 4.03 | – | – | – | – | – | – | – | – | – |
| O=c1cc(OCCCNC2CCN(Cc3ccccc3)CC2)c2ccc(-c3ccc(F)cc3)cc2o1 | 34.3 | 6.69 | – | 9.14 | > 50 | > 1.46 | – | – | – | – | – | – | – | – | – |
| O=c1cc(OCCCN2CCC(NCc3ccccc3)CC2)c2ccc(-c3ccc(F)nc3)cc2o1 | 3.54 | 12.2 | – | 8.49 | 44.2 | 12.5 | – | – | – | – | – | – | – | – | – |
| O=c1cc(OCCCN2CCC(NCc3ccccc3)CC2)c2ccc(-c3ccncc3)cc2o1 | 16.8 | 16.4 | 49.4 | 13.9 | > 50 | > 2.97 | – | – | – | – | – | – | – | – | – |
| O=c1cc(OCCCN2CCC(NCc3cccc([N+](=O)[O-])c3)CC2)c2ccc(-c3cccnc3)cc2o1 | 36.5 | 8.37 | 46.1 | 9.29 | > 50 | > 1.37 | – | – | – | – | – | – | – | – | – |
| O=c1cc(OCCCNC2CCN(Cc3ccccc3)CC2)c2ccc(-c3cccnc3)cc2o1 | 1.31 | 10.7 | 86.8 | 10.2 | 32.3 | 24.6 | 34.7 | 1.23 | Active | Non-Toxic | Non-Toxic | Non-Toxic | 22.8 | 2.64 | – |
| COc1cccc(/C=N/C2CCN(Cc3ccccc3)CC2)c1OC | – | – | – | – | – | – | – | – | – | – | – | – | – | – | > 15 |
| O=C(Nc1cc(-c2ccc3c(OCCCN4CCC(NCc5ccccc5)CC4)cc(=O)oc3c2)ccn1)C1CC1 | 9.69 | 1.87 | 34.7 | 3.34 | 29 | 2.99 | – | – | – | – | – | – | – | – | – |
| N#Cc1cccc(CNC2CCN(CCCOc3cc(=O)oc4cc(-c5cccnc5)ccc34)CC2)c1 | 7.28 | 12.4 | 89.5 | 3.26 | > 50 | > 6.87 | – | – | – | – | – | – | – | – | – |
| O=c1cc(OCCCN2CCC(NCc3ccc(F)c(F)c3)CC2)c2ccc(-c3cccnc3)cc2o1 | 12.7 | 5.36 | 93.8 | 9.72 | 22.8 | 1.78 | 8.05 | 1.81 | – | – | – | – | 9.4 | – | – |
| O=c1cc(OCCCN2CCC(NCc3ccccc3F)CC2)c2ccc(-c3cccnc3)cc2o1 | 11.6 | 19.1 | – | 15.1 | > 50 | > 4.31 | – | – | – | – | – | – | – | – | – |
| CN(Cc1ccccc1)C1CCN(CCCOc2cc(=O)oc3cc(-c4ccc(F)nc4)ccc23)CC1 | 4.07 | 15.6 | 61.3 | 10.4 | > 50 | > 12.3 | – | – | – | – | – | – | – | – | – |
| Nc1c2c(nc3ccccc13)CCCC2 [TACRINE] | – | – | – | – | – | – | – | – | – | – | – | – | 8.04 | – | – |
| O=c1cc(OCCCNC2CCN(Cc3ccccc3)CC2)c2ccc(-c3ccncc3)cc2o1 | 2.24 | 10.2 | – | 10.6 | > 50 | > 22.3 | – | – | – | – | – | – | – | – | – |
| CN(Cc1ccccc1)C1CCN(CCCOc2cc(=O)oc3cc(-c4ccc(F)cc4)ccc23)CC1 | 4.55 | 4.88 | 70.9 | 3.37 | > 50 | > 11 | – | – | – | – | – | – | – | – | – |
